From the supplement of paper PMC10307832 come the findings set out here.

What all share (test): relative viability (nuclei count vs DMSO), 5 days (fraction); higher = more cells survive
Compound in assay [1]: CC1=CC=C(C=C1)C(=O)CN2C3=C(CCCC3)SC2=N [Pifithrin_alpha] + CC(=O)Nc1cccc(-n2c(=O)n(C3CC3)c(=O)c3c(Nc4ccc(I)cc4F)n(C)c(=O)c(C)c32)c1 [Trametinib] (partner 0.02 µM)
An outline of the steps: (§1)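 Dosing by pin tool came one day after lung cancer cell lines were seeded in 1536-well plates, using either one drug or a fixed anchor-drug dose plus five library-drug doses (not always all listed) in √10 steps. After 5 days, nuclei were counted on 4× images. Relative viability is treated-well nuclei count divided by vehicle-well nuclei count, and values are medians of duplicate plates.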

Compound in the assay “Bemcentinib + Bortezomib”: Nc1nc(Nc2ccc3c(c2)CC[C@@H](N2CCCC2)CC3)nn1-c1cc2c(nn1)-c1ccccc1CCC2 [Bemcentinib] + CC(C)C[C@H](NC(=O)[C@H](Cc1ccccc1)NC(=O)c1cnccn1)B(O)O [Bortezomib] (partner 0.002 µM)
The gist of the method: as §1

Compound in the assay “Bemcentinib + Linsitinib”: Nc1nc(Nc2ccc3c(c2)CC[C@@H](N2CCCC2)CC3)nn1-c1cc2c(nn1)-c1ccccc1CCC2 [Bemcentinib] + C[C@]1(O)C[C@@H](c2nc(-c3ccc4ccc(-c5ccccc5)nc4c3)c3c(N)nccn32)C1 [Linsitinib] (partner 1 µM)
An outline of the steps:
as §1

Compound in the assay “Bemcentinib + Phenformin”: Nc1nc(Nc2ccc3c(c2)CC[C@@H](N2CCCC2)CC3)nn1-c1cc2c(nn1)-c1ccccc1CCC2 [Bemcentinib] + N=C(N)NC(=N)NCCc1ccccc1 [Phenformin] (partner 250 µM)
An outline of the steps: as §1

For NCI-H650, the relative viability in assay [1] (first compound 3.162 µM) worked out at 0.947; in assay [1] (first compound 10 µM), 0.978; in assay [1] (first compound 31.62 µM), 0.785; in assay [1] (first compound 100 µM), 0.985; with Bemcentinib + Bortezomib (first compound 0.04 µM), 0.68; with Bemcentinib + Bortezomib (first compound 0.1265 µM), 0.855. For the same cell line, the relative viability was 0.92 with Bemcentinib + Bortezomib (first compound 0.4 µM); 0.628 with Bemcentinib + Bortezomib (first compound 1.265 µM); 0.701 with Bemcentinib + Bortezomib (first compound 4 µM); 0.976 with Bemcentinib + Linsitinib (first compound 0.04 µM); 0.982 with Bemcentinib + Linsitinib (first compound 0.1265 µM); 0.974 in the assay with Bemcentinib + Linsitinib (first compound 0.4 µM). Further, the relative viability with Bemcentinib + Linsitinib (first compound 1.265 µM) is 0.823; with Bemcentinib + Linsitinib (first compound 4 µM), 0.774; with Bemcentinib + Phenformin (first compound 0.04 µM), 0.407; with Bemcentinib + Phenformin (first compound 0.1265 µM) it was 0.487; with Bemcentinib + Phenformin (first compound 0.4 µM), 0.484; with Bemcentinib + Phenformin (first compound 1.265 µM), 0.429. The relative viability in the assay with Bemcentinib + Phenformin (first compound 4 µM) was found to be 0.415.
